According to the supplement of paper PMC10307832:

What was measured:
Assay in all cases: relative viability (nuclei count vs DMSO), 5 days (fraction); higher = more cells survive
COR-L23 = test system: COR-L23
Summary of the method: (§1)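 Medians of duplicate plates are given as relative viability. That measure is the nuclei count in treated wells divided by the count in vehicle wells. Counts were taken on 4× images of lung cancer cell lines in 1536-well plates, 5 days after pin-tool dosing the day after seeding with one drug alone or a fixed anchor-drug dose plus five library-drug doses (not always all listed) in √10 steps.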

ChaGo-K-1 = test system: ChaGo-K-1
Summary of the method: as §1

EPLC-272H = test system: EPLC-272H
Summary of the method: as §1

H3255 = test system: H3255
Summary of the method: as §1

HARA = test system: HARA
Summary of the method: as §1

HCC-78 = test system: HCC-78
Summary of the method: as §1

HOP-62 = test system: HOP-62
Summary of the method: as §1

LCLC-97TM1 = test system: LCLC-97TM1
Summary of the method: as §1

LXF-289 = test system: LXF-289
Summary of the method: as §1

NCI-H1395 = test system: NCI-H1395
Summary of the method: as §1

NCI-H1437 = test system: NCI-H1437
Summary of the method: as §1

NCI-H1650 = test system: NCI-H1650
Summary of the method: as §1

NCI-H1666 = test system: NCI-H1666
Summary of the method: as §1

NCI-H1793 = test system: NCI-H1793
Summary of the method: as §1

NCI-H1944 = test system: NCI-H1944
Summary of the method: as §1

NCI-H2085 = test system: NCI-H2085
Summary of the method: as §1

NCI-H2087 = test system: NCI-H2087
Summary of the method: as §1

NCI-H2126 = test system: NCI-H2126
Summary of the method: as §1

NCI-H3122 = test system: NCI-H3122
Summary of the method: as §1

NCI-H441 = test system: NCI-H441
Summary of the method: as §1

NCI-H596 = test system: NCI-H596
Summary of the method: as §1

NCI-H661 = test system: NCI-H661
Summary of the method: as §1

PC-14 = test system: PC-14
Summary of the method: as §1

Cc1csc(=NC2CCCCC2)n1/N=C/c1ccc(O)c(O)c1O [MIM1] + N=C(N)NC(=N)NCCc1ccccc1 [Phenformin] (partner 250 µM)
relative viability (COR-L23; first compound 0.2 µM): 0.434 | relative viability (COR-L23; first compound 0.6325 µM): 0.437 | relative viability (COR-L23; first compound 2 µM): 0.37 | relative viability (COR-L23; first compound 6.325 µM): 0.373 | relative viability (COR-L23; first compound 20 µM): 0.187 | relative viability (ChaGo-K-1; first compound 0.2 µM): 0.521 | relative viability (ChaGo-K-1; first compound 0.6325 µM): 0.49 | relative viability (ChaGo-K-1; first compound 2 µM): 0.45 | relative viability (ChaGo-K-1; first compound 6.325 µM): 0.227 | relative viability (ChaGo-K-1; first compound 20 µM): 0.171 | relative viability (EPLC-272H; first compound 0.2 µM): 0.324 | relative viability (EPLC-272H; first compound 0.6325 µM): 0.273 | relative viability (EPLC-272H; first compound 2 µM): 0.279 | relative viability (EPLC-272H; first compound 6.325 µM): 0.184 | relative viability (EPLC-272H; first compound 20 µM): 0.104 | relative viability (H3255; first compound 0.2 µM): 0.33 | relative viability (H3255; first compound 0.6325 µM): 0.386 | relative viability (H3255; first compound 2 µM): 0.379 | relative viability (H3255; first compound 6.325 µM): 0.402 | relative viability (H3255; first compound 20 µM): 0.302 | relative viability (HARA; first compound 0.2 µM): 0.455 | relative viability (HARA; first compound 2 µM): 0.49 | relative viability (HARA; first compound 6.325 µM): 0.16 | relative viability (HARA; first compound 20 µM): 0.0907 | relative viability (HCC-78; first compound 0.2 µM): 0.81 | relative viability (HCC-78; first compound 0.6325 µM): 0.53 | relative viability (HCC-78; first compound 2 µM): 0.628 | relative viability (HCC-78; first compound 6.325 µM): 0.597 | relative viability (HCC-78; first compound 20 µM): 0.347 | relative viability (HOP-62; first compound 0.2 µM): 0.641 | relative viability (HOP-62; first compound 0.6325 µM): 0.603 | relative viability (HOP-62; first compound 2 µM): 0.624 | relative viability (HOP-62; first compound 6.325 µM): 0.608 | relative viability (HOP-62; first compound 20 µM): 0.157 | relative viability (LCLC-97TM1; first compound 0.2 µM): 0.445 | relative viability (LCLC-97TM1; first compound 0.6325 µM): 0.434 | relative viability (LCLC-97TM1; first compound 2 µM): 0.413 | relative viability (LCLC-97TM1; first compound 6.325 µM): 0.312 | relative viability (LCLC-97TM1; first compound 20 µM): 0.142 | relative viability (LXF-289; first compound 0.2 µM): 0.517 | relative viability (LXF-289; first compound 0.6325 µM): 0.476 | relative viability (LXF-289; first compound 2 µM): 0.532 | relative viability (LXF-289; first compound 6.325 µM): 0.452 | relative viability (LXF-289; first compound 20 µM): 0.264 | relative viability (NCI-H1395; first compound 0.2 µM): 0.45 | relative viability (NCI-H1395; first compound 0.6325 µM): 0.444 | relative viability (NCI-H1395; first compound 2 µM): 0.459 | relative viability (NCI-H1395; first compound 6.325 µM): 0.399 | relative viability (NCI-H1395; first compound 20 µM): 0.346 | relative viability (NCI-H1437; first compound 0.2 µM): 0.256 | relative viability (NCI-H1437; first compound 0.6325 µM): 0.246 | relative viability (NCI-H1437; first compound 2 µM): 0.244 | relative viability (NCI-H1437; first compound 6.325 µM): 0.205 | relative viability (NCI-H1437; first compound 20 µM): 0.217 | relative viability (NCI-H1650; first compound 0.2 µM): 0.461 | relative viability (NCI-H1650; first compound 0.6325 µM): 0.406 | relative viability (NCI-H1650; first compound 2 µM): 0.412 | relative viability (NCI-H1650; first compound 6.325 µM): 0.155 | relative viability (NCI-H1650; first compound 20 µM): 0.164 | relative viability (NCI-H1666; first compound 0.2 µM): 0.578 | relative viability (NCI-H1666; first compound 0.6325 µM): 0.607 | relative viability (NCI-H1666; first compound 2 µM): 0.517 | relative viability (NCI-H1666; first compound 6.325 µM): 0.456 | relative viability (NCI-H1666; first compound 20 µM): 0.26 | relative viability (NCI-H1793; first compound 0.2 µM): 0.389 | relative viability (NCI-H1793; first compound 2 µM): 0.351 | relative viability (NCI-H1793; first compound 6.325 µM): 0.373 | relative viability (NCI-H1793; first compound 20 µM): 0.302 | relative viability (NCI-H1944; first compound 0.2 µM): 0.208 | relative viability (NCI-H1944; first compound 0.6325 µM): 0.206 | relative viability (NCI-H1944; first compound 2 µM): 0.149 | relative viability (NCI-H1944; first compound 6.325 µM): 0.163 | relative viability (NCI-H1944; first compound 20 µM): 0.104 | relative viability (NCI-H2085; first compound 0.2 µM): 0.739 | relative viability (NCI-H2085; first compound 0.6325 µM): 0.713 | relative viability (NCI-H2085; first compound 2 µM): 0.788 | relative viability (NCI-H2085; first compound 6.325 µM): 0.589 | relative viability (NCI-H2085; first compound 20 µM): 0.468 | relative viability (NCI-H2087; first compound 0.2 µM): 0.457 | relative viability (NCI-H2087; first compound 0.6325 µM): 0.443 | relative viability (NCI-H2087; first compound 2 µM): 0.478 | relative viability (NCI-H2087; first compound 6.325 µM): 0.289 | relative viability (NCI-H2087; first compound 20 µM): 0.225 | relative viability (NCI-H2126; first compound 0.2 µM): 0.512 | relative viability (NCI-H2126; first compound 0.6325 µM): 0.524 | relative viability (NCI-H2126; first compound 2 µM): 0.54 | relative viability (NCI-H2126; first compound 6.325 µM): 0.45 | relative viability (NCI-H2126; first compound 20 µM): 0.391 | relative viability (NCI-H3122; first compound 0.2 µM): 0.364 | relative viability (NCI-H3122; first compound 0.6325 µM): 0.371 | relative viability (NCI-H3122; first compound 2 µM): 0.355 | relative viability (NCI-H3122; first compound 6.325 µM): 0.195 | relative viability (NCI-H3122; first compound 20 µM): 0.143 | relative viability (NCI-H441; first compound 0.2 µM): 0.914 | relative viability (NCI-H441; first compound 2 µM): 0.865 | relative viability (NCI-H441; first compound 6.325 µM): 0.543 | relative viability (NCI-H441; first compound 20 µM): 0.203 | relative viability (NCI-H596; first compound 0.2 µM): 0.705 | relative viability (NCI-H596; first compound 0.6325 µM): 0.829 | relative viability (NCI-H596; first compound 2 µM): 0.733 | relative viability (NCI-H596; first compound 6.325 µM): 0.676 | relative viability (NCI-H596; first compound 20 µM): 0.773 | relative viability (NCI-H661; first compound 0.2 µM): 0.254 | relative viability (NCI-H661; first compound 0.6325 µM): 0.28 | relative viability (NCI-H661; first compound 2 µM): 0.274 | relative viability (NCI-H661; first compound 6.325 µM): 0.26 | relative viability (NCI-H661; first compound 20 µM): 0.24 | relative viability (PC-14; first compound 0.2 µM): 0.662 | relative viability (PC-14; first compound 0.6325 µM): 0.575 | relative viability (PC-14; first compound 2 µM): 0.558 | relative viability (PC-14; first compound 6.325 µM): 0.328 | relative viability (PC-14; first compound 20 µM): 0.237
